How the values were obtained:
[1] = system: HCT116 isogenic IDH1-R132C mutant cells; experiment: Cellular 2-HG assay using HCT116 mutant IDH1 cells (R132C), RapidFire mass spectrometry; format: cell-based; conditions: Homo sapiens, HCT-116; cellular 2-HG level, HCT116 IDH1-R132C cells, 24 hours; read-out: HCT116 IDH1 R132C IC50 (Range)
[2] = system: HCT116 isogenic IDH1-R132H mutant cells; experiment: Cellular 2-HG assay using HCT116 mutant IDH1 cells (R132H), RapidFire mass spectrometry; format: cell-based; conditions: Homo sapiens, HCT-116; cellular 2-HG level, HCT116 IDH1-R132H cells, 24 hours; read-out: HCT116 IDH1 R132H IC50 (Range)
[3] = target: IDH1-R132C recombinant protein (Homo sapiens (Human), UniProt O75874, R132C); experiment: IDH1-R132C enzymatic assay (inhibition of NADPH consumption, diaphorase/resazurin readout); format: biochemical; conditions: read-out: Enzyme IDH1 R132C IC50 (Range)
Outline: (§1)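 Compound was preincubated 15 min at 25 °C with 30 nM IDH1-R132H or 10 nM IDH1-R132C in Tris pH 7.5 buffer with MgCl2, BSA and Triton X-100. Reaction with 2 mM α-ketoglutarate and 20 μM NADPH (solution concentrations) ran 45 min at 25 °C. Remaining NADPH was detected via diaphorase/resazurin fluorescence (ex 535/em 590 nm), and IC50 came from four-parameter fits.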

[4] = target: IDH1-R132H recombinant protein (Homo sapiens (Human), UniProt O75874, R132H); experiment: IDH1-R132H enzymatic assay (inhibition of NADPH consumption, diaphorase/resazurin readout); format: biochemical; conditions: read-out: Enzyme IDH1 R132H IC50 (Range)
Outline: as §1

Sequence of IDH1-R132H recombinant protein (O75874 whole entry R132H): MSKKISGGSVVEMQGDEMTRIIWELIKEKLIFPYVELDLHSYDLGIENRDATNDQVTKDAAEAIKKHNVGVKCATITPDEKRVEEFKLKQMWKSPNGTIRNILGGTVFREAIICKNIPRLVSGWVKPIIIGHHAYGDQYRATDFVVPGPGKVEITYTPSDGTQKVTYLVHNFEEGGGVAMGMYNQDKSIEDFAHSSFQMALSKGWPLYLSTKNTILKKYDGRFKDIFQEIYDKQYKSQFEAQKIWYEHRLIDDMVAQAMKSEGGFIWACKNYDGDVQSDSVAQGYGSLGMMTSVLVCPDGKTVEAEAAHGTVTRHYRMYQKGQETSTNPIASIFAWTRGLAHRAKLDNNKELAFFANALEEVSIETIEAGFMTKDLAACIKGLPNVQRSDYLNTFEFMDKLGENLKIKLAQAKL
Sequence of IDH1-R132C recombinant protein (O75874 whole entry R132C): as the sequence (O75874 whole entry R132H) above, with H132C counted along it

IC50 [1]: 100 to 1000 nM
IC50 [2]: 100 to 1000 nM
IC50 [3]: 100 to 1000 nM
IC50 [4]: < 100 nM
SMILES: CC(=O)Nc1ccnc(N[C@@H](C)c2cc3cc(Cl)cnc3[nH]c2=O)n1 [Compound I-182]
